Test results taken from patent US20250195590A1, “PHAGE AND ALLICIN COMPOSITION FOR INFECTION TREATMENT” (GUANGZHOU MEDICAL UNIVERSITY, priority 2023, published 2025).

Experiments:
[1] = test system: Pseudomonas aeruginosa host bacteria; experiment: Drug resistance of host bacteria; type: cell-based
[2] = test system: Pseudomonas aeruginosa; experiment: Measurement of the minimum inhibitory concentration (micro broth dilution method); type: cell-based; details: allicin alone, preliminary experiment, FIG. 1
Description: (§1) The allicin is diluted to 7.5 mg/mL, 3.75 mg/mL, 0.375 mg/mL, 0.0375 mg/mL, 0.00375 mg/mL and 0.000375 mg/mL respectively, and the phage is diluted to 3×10^4 pfu/mL, 3×10^3 pfu/mL, 3×10^2 pfu/ml, and 3×10^1 pfu/ml respectively, and the host bacteria are diluted to 3×10^5 cfu/mL; allicin, phage, and host bacteria are aspirated 50 μL each and added into each well of the 96-well plate, then the OD600 value is measured, the OD600 value is measured again after overnight shaker incubation at 37° C. and 220 rpm, and the absorbance change value is calculated to determine the inhibition effect on the bacteria.
After the experiment, the experimental results are shown in FIG. 2, and the MIC of phage is 1×10^3 pfu/mL.

[3] = test system: Pseudomonas aeruginosa; experiment: Bacteriostasis effect of phage in combination with allicin (combination experiment, OD600, FIC index); type: cell-based
Description: as §1
In the combination experiment, the bacteriostatic effect of allicin in different concentrations (i.e. allicin alone) is calculated and analyzed when the phage concentration is 0 pfu/mL.
In the combination experiment, the bacteriostatic effect of phages with different concentrations (that is, phages alone) is calculated and analyzed when the concentration of allicin is 0 μg/mL.
Different concentrations of allicin and phage are mixed in a 96-well plate by broth dilution method, and the OD600 value is measured. After overnight shaking table culture at 37° C. and 220 rpm, the OD600 value is measured again, and the chart is drawn.
Judging the combination effect according to the fractional inhibitory concentration (FIC) index^[6]: FIC=MIC (in combination with group A)/MIC (group A used alone)+MIC (in combination with group B)/MIC (group B used alone).
FIC index interpretation criteria: when the FIC index is less than 0.5, the two drugs are synergistic; when the FIC index is 0.5-1, the two drugs are mutually additive; when the FIC index is greater than 1 and less than 2, the two drugs are unrelated; when the FIC index is greater than 2, the two drugs are antagonistic.

[4] = test system: Pseudomonas aeruginosa phage vB_PaeP_GZMU_A1002; experiment: Effect of allicin on phage potency; details: incubated 37° C. 3 h, paired sample T test, 0.05 level, FIG. 3
Description: The solution of Pseudomonas aeruginosa phage vB_PaeP_GZMU_A1002 is diluted to a certain extent, and 100 μL of the diluted phage is mixed with 100 μL of the host bacteria and incubated at 37° C. for 15 min. The incubation solution is mixed with 0.7% semisolid LB agar, spread evenly on top of 1.5% solid LB agar spread on a Petri dish in advance, and cultured in a constant temperature incubator at 37° C. for 8 h or overnight. After the culture, a number of light-transmitting plaques may be seen in the Petri dish. A number of light-transmissive phage spots are visible in the petri dish after incubation, and the optimal view is selected to have 30-300 phage spots in the field of view, and the potency is calculated as potency=(10×number of phage spots)/dilution.
The Pseudomonas aeruginosa phage vB_PaeP_GZMU_A1002 is diluted to 10-8, and 100 μL of phage is mixed with 100 μL of allicin. At the same time, 100 μL of phage is mixed with 100 μL of LB as the control group, which is repeated in parallel for three times, mixed and incubated at 37° C. for 3 h, and then the potency is measured.
In this embodiment, paired sample T test is used to determine whether allicin has an effect on phage titer.

CO/N=C(\C(=O)N[C@@H]1C(=O)N2C(C(=O)[O-])=C(C[N+]3(C)CCCC3)CS[C@H]12)c1csc(N)n1 [Cefepime]
Resistant: Drug resistance of host bacteria ([1]; strain B- P. aeruginosa-029) | Drug resistance of host bacteria ([1]; strain P. aeruginosa-2 (r74)) | Drug resistance of host bacteria ([1]; strain P. aeruginosa-24) | Drug resistance of host bacteria ([1]; strain P. aeruginosa-30) | Drug resistance of host bacteria ([1]; strain P. aeruginosa′-5)

NC[C@H]1O[C@H](O[C@H]2[C@H](O)[C@@H](O[C@H]3O[C@H](CO)[C@@H](O)[C@H](N)[C@H]3O)[C@H](N)C[C@@H]2N)[C@H](N)C[C@@H]1O [Tobramycin]
Resistant: Drug resistance of host bacteria ([1]; strain P. aeruginosa-29)

Piperacillin/Tazobactam
Resistant: Drug resistance of host bacteria ([1]; strain B- P. aeruginosa-029) | Drug resistance of host bacteria ([1]; strain B- P. aeruginosa-037) | Drug resistance of host bacteria ([1]; strain P. aeruginosa-2 (r74)) | Drug resistance of host bacteria ([1]; strain P. aeruginosa-14) | Drug resistance of host bacteria ([1]; strain P. aeruginosa-23) | Drug resistance of host bacteria ([1]; strain P. aeruginosa-26) | Drug resistance of host bacteria ([1]; strain P. aeruginosa-30) | Drug resistance of host bacteria ([1]; strain P. aeruginosa-32) | Drug resistance of host bacteria ([1]; strain P. aeruginosa′-3) | Drug resistance of host bacteria ([1]; strain P. aeruginosa′-4) | Drug resistance of host bacteria ([1]; strain P. aeruginosa′-5) | Drug resistance of host bacteria ([1]; strain P. aeruginosa′-6) | Drug resistance of host bacteria ([1]; strain P. aeruginosa′-15)

C[C@H]1[C@H](NC(=O)/C(=N\OC(C)(C)C(=O)O)c2csc(N)n2)C(=O)N1S(=O)(=O)O [Aztreonam]
Resistant: Drug resistance of host bacteria ([1]; strain B- P. aeruginosa-029) | Drug resistance of host bacteria ([1]; strain B- P. aeruginosa-037) | Drug resistance of host bacteria ([1]; strain P. aeruginosa-2 (r74)) | Drug resistance of host bacteria ([1]; strain P. aeruginosa-4) | Drug resistance of host bacteria ([1]; strain P. aeruginosa-13) | Drug resistance of host bacteria ([1]; strain P. aeruginosa-14) | Drug resistance of host bacteria ([1]; strain P. aeruginosa-22) | Drug resistance of host bacteria ([1]; strain P. aeruginosa-25) | Drug resistance of host bacteria ([1]; strain P. aeruginosa-26) | Drug resistance of host bacteria ([1]; strain P. aeruginosa-27) | Drug resistance of host bacteria ([1]; strain P. aeruginosa-30) | Drug resistance of host bacteria ([1]; strain P. aeruginosa′-3) | Drug resistance of host bacteria ([1]; strain P. aeruginosa′-4) | Drug resistance of host bacteria ([1]; strain P. aeruginosa′-5) | Drug resistance of host bacteria ([1]; strain P. aeruginosa′-10)

C=CCS[S+]([O-])CC=C (centres unmarked) [allicin]
1/1000: optimal concentration for combination, allicin ([3]; with 1×10^2 pfu/mL phage, FIG. 6)
about 0: OD600 ([3]; allicin alone 1.25 mg/mL, FIG. 4)
three orders of magnitude: decrease of amount when used in combination as compared to singly ([3]; allicin with phage)
1.25 µg/mL: best combination dosage, allicin ([3]; in combination with 1×10^2 pfu/mL phage, FIG. 6)
no negative effect: effect of allicin on phage potency (titer) [4]
1250 µg/mL: MIC [2] | MIC ([3]; Pseudomonas aeruginosa, combination experiment, phage concentration 0 pfu/mL, FIG. 4, read-out: MIC of allicin alone)

NCC[C@H](O)C(=O)N[C@@H]1C[C@H](N)[C@@H](O[C@H]2O[C@H](CN)[C@@H](O)[C@H](O)[C@H]2O)[C@H](O)[C@H]1O[C@H]1O[C@H](CO)[C@@H](O)[C@H](N)[C@H]1O [Amikacin]
Resistant: Drug resistance of host bacteria ([1]; strain P. aeruginosa′-5)

O=C(O)c1cn(C2CC2)c2cc(N3CCNCC3)c(F)cc2c1=O [Ciprofloxacin]
Resistant: Drug resistance of host bacteria ([1]; strain B- P. aeruginosa-029) | Drug resistance of host bacteria ([1]; strain B- P. aeruginosa-035) | Drug resistance of host bacteria ([1]; strain B- P. aeruginosa-037) | Drug resistance of host bacteria ([1]; strain B- P. aeruginosa-041) | Drug resistance of host bacteria ([1]; strain B- P. aeruginosa-042) | Drug resistance of host bacteria ([1]; strain B-P. AERUGINOSA-027) | Drug resistance of host bacteria ([1]; strain P. aeruginosa-25) | Drug resistance of host bacteria ([1]; strain P. aeruginosa-29)
